# Experimental data published in US20260083751A1, “ALLOSTERIC MODULATORS OF ANDROGEN RECEPTOR COACTIVATOR RECRUITMENT FOR CRPC THERAPY” (University of Pittsburgh – Of the Commonwealth System of …, priority 2022, published 2026).
# Values joined by “and” are separate entries in the source; they are usually repeats but may differ in a detail not shown here. Identical values can stand only once.
# Biological target: T1, AR-LBD PPI interactions with TIF2 and SRC1 coactivators (Homo sapiens, UniProt P10275)
# T1 construct: AR-LBD amino acids 658-919 expressed as a fusion protein with Gal4-DBD; expressed in transfected cells; host or cells: HEK 293, transient co-transfection
# T1 sequence (P10275 659-920): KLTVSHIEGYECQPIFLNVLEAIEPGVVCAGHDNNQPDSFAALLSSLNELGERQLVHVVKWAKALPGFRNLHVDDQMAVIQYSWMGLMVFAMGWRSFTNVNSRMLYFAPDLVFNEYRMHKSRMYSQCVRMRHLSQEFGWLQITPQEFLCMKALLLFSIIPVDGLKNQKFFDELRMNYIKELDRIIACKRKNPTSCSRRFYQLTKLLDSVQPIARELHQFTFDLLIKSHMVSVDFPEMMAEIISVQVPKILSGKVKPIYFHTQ
# Test: TIF2 and SRC1 mammalian 2-hybrid assays, results stated jointly
# Type: cell-based
# Conditions: not given
# From the text: TIF2 and SRC1 Mammalian 2-Hybrid Assays: The 5×GAL4-TATA-luciferase reporter plasmid was a gift from Dr. Richard Maurer from the Oregon Health and Science University (Gonzalez et al., Cell 1989, 59:675-80), and constructs pGAL4-hAR-658-919 (AR-LBD amino acids 658-919 expressed as a fusion protein with Gal4-DBD) (Askew et al., J Biol Chem 2007, 282:25801-16), pVP16-SRC1 (full-length SRC1 expressed as a fusion with VP16 activation domain) (He et al., J Biol Chem 1999, 274:37219-25) and pVP16-Empty vectors were kindly provided to us by Dr. Elizabeth Wilson, from UNC Chapel Hill. pVP16-TIF2 was generated as described previously (Fancher et al., Assay Drug Dev Technol. 2019, 17:364-386). HEK 293 cells were transiently co-transfected with 5 ng of pGal4-AR-LBD, 10 ng of either pVP16-TIF2 or pVP16-SRC1, and 20 ng of the 5×Gal4-TATA-Luc reporter as described previously (Ibid.). HEK 293 cells were bulk co-transfected with the three plasmids that had been individually incubated with FuGENE® 6 transfection agent (Fugent LLC, Middleton, WI) at a 3:1 ratio for 25 min at room temperature (RT) in serum free media (SFM) and then combined with HEK 293 cells that were suspended in DMEM (Cellgro10013CV) with 2 mM L-glutamine (Invitrogen) that was supplemented with 10% fetal bovine serum, and 5,000 cells in a volume of 40 μL were seeded into the wells of white opaque 384-well assay plates (Greiner Bio-one, #781080) and cultured overnight at 37° C., 5% CO2, and 95% humidity. […] 25 μL of BrightGlo® reagent (Promega, Madison, WI) was added to the plate and the relative luminescence units (RLUs) were captured on a SpectraMax® M5e microtiter plate reader (Molecular Devices, LLC, San Jose, CA).
SMILES,Fold M2H IC50s less than corresponding AR-TIF2 biosensor IC50s,Fold difference of M2H IC50s to IC50 for AR-TIF2 PPI disruption
Cc1nsc(NC(=O)N2CCC(Sc3ccccc3C)CC2)n1 [Compound S2-6],~10 fold,–
Cc1ccccc1-c1cc(O)c2c(c1)CN(c1nc(C(N)=O)cs1)CCO2 [Compound S1-1],–,~5 fold

# Same assay, conditions: CoA selectivity
row,SMILES,Fold lower IC50 for TIF2 than SRC1
1,Cc1nsc(NC(=O)N2CCC(Sc3ccccc3C)CC2)n1 [Compound S2-6],~5 fold

# Same assay, conditions: IC50s in TIF2 and SRC-1 M2H assays (potency range in words), both M2H assays
row,SMILES,IC50
1,Cc1nsc(NC(=O)N2CCC(Sc3ccccc3C)CC2)n1 [Compound S2-6],< 1 µM
2,Cc1cccc2c(-c3ccc(O)c(F)c3)c[nH]c12 [Compound S3-17],10 to 100 µM
3,Cc1ccccc1-c1cc(O)c2c(c1)CN(c1nccs1)CCO2 [Compound S1-3],1 to 10 µM
4,CNC(=O)c1ccc(-c2c[nH]c3c(C)cccc23)cc1 [Compound S3-21],10 to 100 µM
5,Cc1nc(N)cc(N2CCOc3c(O)cc(-c4ccccc4C)cc3C2)n1 [Compound S1-2],1 to 10 µM
6,Cc1c(-c2ccccc2F)[nH]c2ccc(CNC(=O)CCc3cnccn3)cc12 [Compound S3-12],1 to 10 µM
7,Cc1c(-c2ccccc2F)[nH]c2ccc(CNC(=O)c3ccc(CO)o3)cc12 [Compound S3-14],1 to 10 µM
8,Cc1c(-c2ccc(F)cc2)[nH]c2ccc(CNC(=O)c3ccc(CO)o3)cc12 [Compound S3-15],1 to 10 µM
9,Cc1ccccc1-c1cc(O)c2c(c1)CN(c1nc(C(N)=O)cs1)CCO2 [Compound S1-1],1 to 10 µM
10,COc1cc(-c2ccc(C)s2)cc2c1OCCN(c1nc(C(N)=O)cs1)C2 [Compound S1-5],10 to 100 µM
11,CC(=O)NCCC(=O)NCc1ccc2[nH]c(-c3ccccc3F)c(C)c2c1 [Compound S3-13],10 to 100 µM
12,Cc1c(-c2ccccc2F)[nH]c2ccc(CNC(=O)CCc3cn[nH]c3)cc12 [Compound S3-11],1 to 10 µM

# Same assay, conditions: both M2H assays; read-out: IC50s, DHT-induced AR-LBD PPI interactions with TIF2 and SRC1 coactivators
row,SMILES,IC50
1,Cc1cccc2c(-c3ccc(O)c(F)c3)c[nH]c12 [Compound S3-17],10 to 20 µM
2,CNC(=O)c1ccc(-c2c[nH]c3c(C)cccc23)cc1 [Compound S3-21],10 to 20 µM
3,Cc1c(-c2ccccc2F)[nH]c2ccc(CNC(=O)CCc3cnccn3)cc12 [Compound S3-12],< 10 µM
4,Cc1c(-c2ccccc2F)[nH]c2ccc(CNC(=O)c3ccc(CO)o3)cc12 [Compound S3-14],< 10 µM
5,Cc1c(-c2ccc(F)cc2)[nH]c2ccc(CNC(=O)c3ccc(CO)o3)cc12 [Compound S3-15],< 10 µM
6,COc1cc(-c2ccc(C)s2)cc2c1OCCN(c1nc(C(N)=O)cs1)C2 [Compound S1-5],20 to 42 µM
7,CC(=O)NCCC(=O)NCc1ccc2[nH]c(-c3ccccc3F)c(C)c2c1 [Compound S3-13],10 to 20 µM
8,Cc1c(-c2ccccc2F)[nH]c2ccc(CNC(=O)CCc3cn[nH]c3)cc12 [Compound S3-11],< 10 µM

# Biological target: T2, AR-LBD (Homo sapiens, UniProt P10275)
# T2 construct: The pET28a-AR-LBD (622-919) construct; made in house
# T2 sequence (P10275 622-919): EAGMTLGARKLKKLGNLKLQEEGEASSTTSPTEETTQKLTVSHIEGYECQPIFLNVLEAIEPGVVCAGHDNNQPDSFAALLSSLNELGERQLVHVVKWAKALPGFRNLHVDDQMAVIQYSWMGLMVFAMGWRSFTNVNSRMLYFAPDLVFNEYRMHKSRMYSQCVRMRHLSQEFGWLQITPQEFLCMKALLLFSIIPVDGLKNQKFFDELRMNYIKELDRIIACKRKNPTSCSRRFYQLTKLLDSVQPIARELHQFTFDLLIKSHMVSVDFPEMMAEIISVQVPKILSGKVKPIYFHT
# Test: H^3-DHT radioligand binding assay
# Conditions: 10 nM H^3-DHT; listed as 1; read-out: Inhibition H^3-DHT ligand binding to AR-LBD IC50
# Protocol: H^3-DHT Radioligand Binding Assay: The His6-AR-LBD H^3-DHT competition binding assay has been described previously (Fancher et al., Assay Drug Dev Technol. 2016, 14:453-477; Fancher et al., Assay Drug Dev Technol. 2019, 17:364-386). Briefly, 96-well Cu^2+-coated plates (ThermoFisher) were incubated overnight at 4° C. with 5 µg per well His6-AR-LBD in 100 μL of PBS. Unbound His6-AR-LBD was aspirated, the plate was washed 3× with 100 μL of 0.05% Tween 20 in PBS and then blocked with 100 μL of 1 mg/mL BSA in PBS for 1 h. After three more washes with 100 μL of PBS and 0.05% Tween 20, 40 μL of PBS was added to wells followed by […] each of diluted compounds and 100 nM H^3-DHT transferred into the wells using a Matrix pipettor. Compounds were tested between 0.098 to 50 μM in the presence of 10 nM H^3-DHT. After 1 h, compounds and H^3-DHT were aspirated and washed 3× with 0.05% Tween 20 in PBS; 100 μL of Microscint™-20 micro-scintillation cocktail buffer (Perkin Elmer, Waltham, MA) was added to each well, plates were sealed with adhesive plastic covers; and the counts per minute (CPMs) were captured in a TopCount NXT microtiter plate reader (Perkin Elmer, Waltham, MA).
row,SMILES,IC50
1,Cc1ccccc1-c1cc(O)c2c(c1)CN(c1nc(C(N)=O)cs1)CCO2 [Compound S1-1],26.7 µM

# Same assay, conditions: 10 nM H^3-DHT; read-out: Inhibition H^3-DHT ligand binding to AR-LBD IC50
row,SMILES,IC50
1,Cc1nsc(NC(=O)N2CCC(Sc3ccccc3C)CC2)n1 [Compound S2-6],> 100 µM
2,Cc1cccc2c(-c3ccc(O)c(F)c3)c[nH]c12 [Compound S3-17],56 µM
3,Cc1ccccc1-c1cc(O)c2c(c1)CN(c1nccs1)CCO2 [Compound S1-3],> 100 µM
4,CNC(=O)c1ccc(-c2c[nH]c3c(C)cccc23)cc1 [Compound S3-21],> 100 µM
5,Cc1nc(N)cc(N2CCOc3c(O)cc(-c4ccccc4C)cc3C2)n1 [Compound S1-2],> 100 µM
6,Cc1c(-c2ccccc2F)[nH]c2ccc(CNC(=O)CCc3cnccn3)cc12 [Compound S3-12],> 100 µM
7,Cc1c(-c2ccccc2F)[nH]c2ccc(CNC(=O)c3ccc(CO)o3)cc12 [Compound S3-14],63 µM
8,Cc1c(-c2ccc(F)cc2)[nH]c2ccc(CNC(=O)c3ccc(CO)o3)cc12 [Compound S3-15],> 100 µM
9,Cc1ccccc1-c1cc(O)c2c(c1)CN(c1nc(C(N)=O)cs1)CCO2 [Compound S1-1],~44 µM and ~27 µM
10,COc1cc(-c2ccc(C)s2)cc2c1OCCN(c1nc(C(N)=O)cs1)C2 [Compound S1-5],> 100 µM
11,CC(=O)NCCC(=O)NCc1ccc2[nH]c(-c3ccccc3F)c(C)c2c1 [Compound S3-13],> 100 µM
12,Cc1c(-c2ccccc2F)[nH]c2ccc(CNC(=O)CCc3cn[nH]c3)cc12 [Compound S3-11],> 100 µM

# Same assay, conditions: read-out: IC50 in H^3-DHT binding assay (potency range in words)
row,SMILES,IC50
1,Cc1cccc2c(-c3ccc(O)c(F)c3)c[nH]c12 [Compound S3-17],10 to 100 µM
2,Cc1c(-c2ccccc2F)[nH]c2ccc(CNC(=O)c3ccc(CO)o3)cc12 [Compound S3-14],10 to 100 µM

# Tested on: AR-V7-mediated PSA promoter-driven transcription in PC3-AR-V7-GFP cells
# Test: PSA6.1 promoter driven luciferase reporter assay in PC3-AR-V7-GFP cells
# Type: cell-based
# Conditions: 24 h, 24 h exposure; read-out: IC50 in PSA-Luc AR-V7 reporter assay (potency range in words)
# Protocol: PSA6.1 Promoter Driven Luciferase Reporter Assay in PC3-AR-V7-GFP Cells: PC3-AR-V7-GFP cells were bulk transfected with a mixture of FuGENE® HD transfection agent and the PSA-6.1-Luc reporter plasmid (20 ng/well) combined at a 3:1 (μL:μg) ratio in Opti-MEM™ medium (Gibco, Gaithersburg, MD) that had been incubated for 25 min at RT before being added to PC3-AR-V7-GFP cells that were suspended in RPMI 1640 (Gibco) media containing 1% L-glutamine (Invitrogen), and 10% fetal bovine serum (Gemini Bio-products). Bulk transfected PC3-AR-V7-GFP cells were seeded into white opaque 384-well assay plates (Greiner Bio-one, #781080) at 3,000 cells per well in a volume of 40 μL and incubated at 5% CO2, 37° C., and 95% humidity for 24 h. After 24 h, 5 μL of compounds were transferred to assay wells and the plates were returned to the incubator for an additional 24 h before 25 μL of BrightGlo® luciferase reagent (Promega) was added to the wells and the RLU's were captured on a SpectraMax® M5e plate reader (Molecular Devices LLC) as described previously (Fancher et al., Assay Drug Dev Technol. 2019, 17:364-386).
row,SMILES,IC50
1,Cc1cccc2c(-c3ccc(O)c(F)c3)c[nH]c12 [Compound S3-17],10 to 100 µM
2,Cc1c(-c2ccccc2F)[nH]c2ccc(CNC(=O)CCc3cnccn3)cc12 [Compound S3-12],1 to 10 µM
3,Cc1c(-c2ccccc2F)[nH]c2ccc(CNC(=O)c3ccc(CO)o3)cc12 [Compound S3-14],10 to 100 µM
4,Cc1c(-c2ccc(F)cc2)[nH]c2ccc(CNC(=O)c3ccc(CO)o3)cc12 [Compound S3-15],1 to 10 µM
5,CC(=O)NCCC(=O)NCc1ccc2[nH]c(-c3ccccc3F)c(C)c2c1 [Compound S3-13],10 to 100 µM
6,Cc1c(-c2ccccc2F)[nH]c2ccc(CNC(=O)CCc3cn[nH]c3)cc12 [Compound S3-11],10 to 100 µM

# Same assay, conditions: PC3-AR-V7-GFP cells, constitutive; read-out: Inhibition AR-V7 PSA-reporter IC50
row,SMILES,IC50
1,CNC(=O)c1ccc(-c2c[nH]c3c(C)cccc23)cc1 [Compound S3-21],> 100 µM
2,Cc1nc(N)cc(N2CCOc3c(O)cc(-c4ccccc4C)cc3C2)n1 [Compound S1-2],12.2 µM
3,Cc1c(-c2ccccc2F)[nH]c2ccc(CNC(=O)CCc3cn[nH]c3)cc12 [Compound S3-11],3.13 µM
